Patent US8097585B2, “Methods of treating inflammation by administration of heme oxygenase-1 and products of heme degradation” (priority 2002, dated 2012)
Structures can show the parent of a compound that is named as a salt.

How the values were obtained:
HO-1 = HO-1 expression in donor tissues and islets after CoPP; assay type: in vivo, mice; conditions: CoPP given to the donor animal; heart, kidney, pancreas, liver and spleen
Method: Induction of HO-1/Administration of biliverdin/bilirubin. When given to the donor, CoPPIX (20 mg/kg) was given 24 hours before islet isolation to induce HO-1 expression. To verify HO-1 expression in different organs after CoPP treatment, tissue samples are collected 24 hours after treatment and snap frozen in liquid nitrogen. Immunohistological analysis of HO-1 expression is performed using an anti-HO-1 antibody. CoPPIX (20 mg/kg) was administrated to the recipient intraperitoneally (i.p.) on day-1, 1, 3, 5 and 7. Biliverdin (50 μmol/kg) or bilirubin (8.5 μmol/kg) was given intraperitoneally to the donor one hour before islet isolation. For the recipient, biliverdin (50 μmol/kg) or bilirubin ([…]) was administered intraperitoneally either daily or twice per day from day-1 until day 13. No further treatment was given afterwards.
Semi-Quantitative PCR. RNA was extracted using Rneasy™ Mini Kits (Qiagen Inc., CA, USA) and reverse transcribed into cDNA with the RNA PCR Kit (TaKaRa, PanVera, Madison, Wis., USA). A total of 2 μg of cDNA was amplified in a 50 μl reaction mix containing 10 μM dNTPs, […] of 5′-prime and 3′-prime oligos, 2.5 U of LA-Taq polymerase (TaKaRa) and MgCl2, specific to each primer pair used. […] PCR products (10-20 μl) were analyzed in an ethidium bromide-stained 1% agarose gel.

[1] = tested on: LPS-induced lung inflammation; assay: Endotoxic shock (LPS) model, bronchoalveolar lavage; assay type: in vivo, Sprague-Dawley rats; conditions: BAL 24 hours after LPS
Method: Treatment Protocol. Endotoxin (lipopolysaccharide/LPS; Sigma; E. coli serotype 0128:B7; 3 mg/kg, i.v.) was administered to male Sprague-Dawley, resulting in an acute non-lethal inflammation. In rats, a sublethal dose of LPS results in a moderate lung inflammation characterized by neutrophil accumulation and protein accumulation in the airspace, both markers of lung inflammation. The pro-inflammatory cytokine TNF-alpha increases very rapidly in the serum, peaking by 60-90 minutes. This is followed by increases in IL-10, a prototypical anti-inflammatory cytokine that peaks 8-12 hr later.
Administration of Biliverdin. Biliverdin (Frontier Scientific: prepared in PBS following solubilization in NaOH) was administered i.p. at […] 17 hours prior to, one hour prior to, and eight hours after LPS administration.
Bronchoalveolar Lavage. A bronchoalveolar lavage (BAL) was performed 24 hours after LPS administration. Serum cytokines were measured using commercially available ELISA kits (R&D Systems Inc.) per the manufacturer's instructions. Total protein was determined via a standard Bradford assay based on a standard curve. […] Total cell count was determined as well as differential analysis of cell type and morphology via Diff-Quik® Fixative (American Scientific Products) staining of a sample of the lavagate.

| SMILES | HO-1 expression in donor tissues (HO-1) | neutrophil accumulation in the airspace [1] | protein accumulation in the airspace [1] |
| --- | --- | --- | --- |
| C=CC1=C(C)c2cc3[n-]c(cc4nc(cc5[n-]c(cc1n2)c(C)c5CCC(=O)[O-])C(CCC(=O)[O-])=C4C)c(C)c3C=C.[Co+2].[H+].[H+] [CoPP, Cobalt protoporphyrin] | HO-1 expression was observed in several different tissues | – | – |
| C=CC1=C(C)/C(=C/C2=NC(=C\c3[nH]c(/C=C4\NC(=O)C(C)=C4C=C)c(C)c3CCC(=O)O)/C(CCC(=O)O)=C2C)NC1=O [biliverdin, biliverdin dihydrochloride] | – | reduced | reduced |
